Key:
Assay type in all cases: biochemical
human Yes1 enzyme = target: T1, human Yes1 enzyme (Homo sapiens, UniProt P07947); assay: Yes1 enzyme inhibitory activity (time-resolved fluorometry, biotinylated peptide phosphorylation); conditions: biotinylated peptide phosphorylation, read-out: YES_IC50
T1 construct: made in house
Procedure, shortened: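 Inhibition was expressed against a compound-free control to give IC50, using TR-FRET read-out (Eu-cryptate anti-pTyr antibody, streptavidin-XL665).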

human Src enzyme = target: T2, human Src enzyme (Homo sapiens, UniProt P12931); assay: Src enzyme inhibitory activity (time-resolved fluorometry, biotinylated peptide phosphorylation); conditions: biotinylated peptide phosphorylation, read-out: SRC_IC50
T2 construct: purchased Carna Biosciences, Inc. 08-173
T2 sequence (P12931 whole entry): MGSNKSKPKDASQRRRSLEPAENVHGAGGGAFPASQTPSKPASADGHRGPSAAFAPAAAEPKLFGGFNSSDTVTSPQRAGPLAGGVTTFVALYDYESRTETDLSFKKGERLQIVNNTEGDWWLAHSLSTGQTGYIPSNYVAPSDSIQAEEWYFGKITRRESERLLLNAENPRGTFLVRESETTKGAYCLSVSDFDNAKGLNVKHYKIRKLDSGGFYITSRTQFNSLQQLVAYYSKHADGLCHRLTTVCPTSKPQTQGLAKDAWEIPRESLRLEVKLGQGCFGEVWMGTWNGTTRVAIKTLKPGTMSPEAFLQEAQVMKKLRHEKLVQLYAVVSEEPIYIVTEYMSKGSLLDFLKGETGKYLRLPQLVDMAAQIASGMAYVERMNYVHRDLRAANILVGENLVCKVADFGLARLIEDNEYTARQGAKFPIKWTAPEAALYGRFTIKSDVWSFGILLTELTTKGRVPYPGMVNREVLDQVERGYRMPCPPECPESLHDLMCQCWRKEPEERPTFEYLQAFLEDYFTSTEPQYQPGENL
Procedure, shortened: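 Compounds were tested for blocking tyrosine phosphorylation of a biotinylated peptide substrate by recombinant human Src. Phosphorylated product was quantified by time-resolved fluorometry using europium cryptate and XL665 conjugates, and IC50 was calculated against the compound-free control.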

human Lck enzyme = target: T3, human Lck enzyme (Homo sapiens, UniProt P06239); assay: Lck enzyme inhibitory activity (time-resolved fluorometry, biotinylated peptide phosphorylation); conditions: biotinylated peptide phosphorylation, read-out: LCK_IC50
T3 construct: purchased Carna Biosciences, Inc. 08-170
T3 sequence (P06239 whole entry): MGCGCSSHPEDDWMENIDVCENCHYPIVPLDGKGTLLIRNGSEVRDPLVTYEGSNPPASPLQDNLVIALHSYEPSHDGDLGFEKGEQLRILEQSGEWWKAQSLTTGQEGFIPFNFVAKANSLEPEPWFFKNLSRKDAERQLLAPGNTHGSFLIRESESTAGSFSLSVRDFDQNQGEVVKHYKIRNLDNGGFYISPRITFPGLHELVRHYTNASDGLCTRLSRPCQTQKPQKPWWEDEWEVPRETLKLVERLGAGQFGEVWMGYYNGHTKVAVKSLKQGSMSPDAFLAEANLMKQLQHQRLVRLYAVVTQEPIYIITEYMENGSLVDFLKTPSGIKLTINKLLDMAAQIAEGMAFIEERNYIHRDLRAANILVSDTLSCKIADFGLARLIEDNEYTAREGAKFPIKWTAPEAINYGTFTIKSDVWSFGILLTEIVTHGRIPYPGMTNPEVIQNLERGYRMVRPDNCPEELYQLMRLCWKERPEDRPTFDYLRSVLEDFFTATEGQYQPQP
Procedure, shortened: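 Readout pairs a europium cryptate-labelled anti-phosphotyrosine antibody with XL665-streptavidin, measured by time-resolved fluorescence. IC50 derived from percent inhibition against untreated controls.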

T1 sequence (P07947 whole entry): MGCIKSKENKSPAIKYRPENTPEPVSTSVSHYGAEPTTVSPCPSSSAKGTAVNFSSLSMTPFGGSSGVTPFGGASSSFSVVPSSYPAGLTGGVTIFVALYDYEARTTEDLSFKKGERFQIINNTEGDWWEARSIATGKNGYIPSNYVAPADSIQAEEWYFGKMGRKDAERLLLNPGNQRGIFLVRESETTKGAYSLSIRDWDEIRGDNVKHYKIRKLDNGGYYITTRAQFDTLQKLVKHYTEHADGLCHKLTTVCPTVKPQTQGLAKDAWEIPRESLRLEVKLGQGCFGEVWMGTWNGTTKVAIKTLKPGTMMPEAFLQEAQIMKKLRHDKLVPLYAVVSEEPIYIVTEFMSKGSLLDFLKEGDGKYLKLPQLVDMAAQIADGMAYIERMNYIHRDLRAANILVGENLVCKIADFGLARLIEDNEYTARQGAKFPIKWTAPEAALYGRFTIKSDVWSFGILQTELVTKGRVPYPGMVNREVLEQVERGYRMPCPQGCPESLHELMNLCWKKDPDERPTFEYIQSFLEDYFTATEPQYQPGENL

Compound	IC50 (human Yes1 enzyme) [nM]	IC50 (human Src enzyme) [nM]	IC50 (human Lck enzyme) [nM]
Cc1cc(Oc2ccccc2F)ncc1-n1ncc(C(=O)c2cc3cc(N4CCOCC4)c(NS(=O)(=O)C4CC4)cc3[nH]2)c1N [Example 4-24-014, N-[2-[5-amino-1-[6-(2-fluorophenoxy)-4-methylpyridin-3-yl]pyrazole-4-carbonyl]-5-morpholin-4-yl-1H-indol-6-yl]cyclopropanesulfonamide]	6.6	360	97
Cc1cc(Oc2ccccc2F)ncc1-n1ncc(C(=O)c2cc3cc(N4CCOCC4)c(NS(C)(=O)=O)cc3[nH]2)c1N [Example 4-24-015, N-[2-[5-amino-1-[6-(2-fluorophenoxy)-4-methylpyridin-3-yl]pyrazole-4-carbonyl]-5-morpholin-4-yl-1H-indol-6-yl]methanesulfonamide]	1.3	77	16
Cc1cc(Oc2ccccc2F)ncc1-n1ncc(C(=O)c2cc3cc(N4CCOCC4)c(NS(=O)(=O)CCCF)cc3[nH]2)c1N [Example 4-24-016, N-[2-[5-amino-1-[6-(2-fluorophenoxy)-4-methylpyridin-3-yl]pyrazole-4-carbonyl]-5-morpholin-4-yl-1H-indol-6-yl]-3-fluoropropane-1-sulfonamide]	0.87	78	32
Cc1cc(Oc2c(F)cccc2F)ncc1-n1ncc(C(=O)c2cc3cc(N4CCOCC4)c(NS(=O)(=O)C4CC4)cc3[nH]2)c1N [Example 4-24-017, N-[2-[5-amino-1-[6-(2,6-difluorophenoxy)-4-methylpyridin-3-yl]pyrazole-4-carbonyl]-5-morpholin-4-yl-1H-indol-6-yl]cyclopropanesulfonamide]	4.1	170	65
Cc1cc(Oc2c(F)cccc2F)ncc1-n1ncc(C(=O)c2cc3cc(N4CCOCC4)c(NS(C)(=O)=O)cc3[nH]2)c1N [Example 4-24-018, N-[2-[5-amino-1-[6-(2,6-difluorophenoxy)-4-methylpyridin-3-yl]pyrazole-4-carbonyl]-5-morpholin-4-yl-1H-indol-6-yl]methanesulfonamide]	2.6	91	27
Cc1cc(Oc2c(F)cccc2F)ncc1-n1ncc(C(=O)c2cc3cc(N4CCOCC4)c(NS(=O)(=O)CCCF)cc3[nH]2)c1N [Example 4-24-019, N-[2-[5-amino-1-[6-(2,6-difluorophenoxy)-4-methylpyridin-3-yl]pyrazole-4-carbonyl]-5-morpholin-4-yl-1H-indol-6-yl]-3-fluoropropane-1-sulfonamide]	3.9	140	62
Cc1cc(Oc2ccccc2F)ccc1-n1ncc(C(=O)c2cc3cc(OCC(F)F)c(NS(=O)(=O)C4CC4)cc3[nH]2)c1N [Example 4-24-020, N-[2-[5-amino-1-[4-(2-fluorophenoxy)-2-methylphenyl]pyrazole-4-carbonyl]-5-(2,2-difluoroethoxy)-1H-indol-6-yl]cyclopropanesulfonamide]	3.1	54	22
Cc1cc(Oc2ccccc2F)ccc1-n1ncc(C(=O)c2cc3cc(OCC(F)F)c(NS(C)(=O)=O)cc3[nH]2)c1N [Example 4-24-021, N-[2-[5-amino-1-[4-(2-fluorophenoxy)-2-methylphenyl]pyrazole-4-carbonyl]-5-(2,2-difluoroethoxy)-1H-indol-6-yl]methanesulfonamide]	1.7	22	9.7
Cc1cc(Oc2ccccc2F)ccc1-n1ncc(C(=O)c2cc3cc(OCC(F)F)c(NS(=O)(=O)CCCF)cc3[nH]2)c1N [Example 4-24-022, N-[2-[5-amino-1-[4-(2-fluorophenoxy)-2-methylphenyl]pyrazole-4-carbonyl]-5-(2,2-difluoroethoxy)-1H-indol-6-yl]-3-fluoropropane-1-sulfonamide]	3.2	30	22
Cc1cc(Oc2ccccc2F)ccc1-n1ncc(C(=O)c2cc3cc(OCC(F)F)c(NS(=O)(=O)CCC(F)F)cc3[nH]2)c1N [Example 4-24-023, N-[2-[5-amino-1-[4-(2-fluorophenoxy)-2-methylphenyl]pyrazole-4-carbonyl]-5-(2,2-difluoroethoxy)-1H-indol-6-yl]-3,3-difluoropropane-1-sulfonamide]	2.3	24	14
Cc1cc(Oc2ccccc2F)cc(F)c1-n1ncc(C(=O)c2cc3cc(OCC(F)F)c(NS(=O)(=O)C4CC4)cc3[nH]2)c1N [Example 4-24-024, N-[2-[5-amino-1-[2-fluoro-4-(2-fluorophenoxy)-6-methylphenyl]pyrazole-4-carbonyl]-5-(2,2-difluoroethoxy)-1H-indol-6-yl]cyclopropanesulfonamide]	3.3	130	46

Other lines, results leading:

IC50 (human Yes1 enzyme) [nM]	IC50 (human Src enzyme) [nM]	IC50 (human Lck enzyme) [nM]	Compound
1.6	59	13	Cc1cc(Oc2ccccc2F)cc(F)c1-n1ncc(C(=O)c2cc3cc(OCC(F)F)c(NS(C)(=O)=O)cc3[nH]2)c1N [Example 4-24-025, N-[2-[5-amino-1-[2-fluoro-4-(2-fluorophenoxy)-6-methylphenyl]pyrazole-4-carbonyl]-5-(2,2-difluoroethoxy)-1H-indol-6-yl]methanesulfonamide]
1.7	50	21	Cc1cc(Oc2ccccc2F)cc(F)c1-n1ncc(C(=O)c2cc3cc(OCC(F)F)c(NS(=O)(=O)CCCF)cc3[nH]2)c1N [Example 4-24-026, N-[2-[5-amino-1-[2-fluoro-4-(2-fluorophenoxy)-6-methylphenyl]pyrazole-4-carbonyl]-5-(2,2-difluoroethoxy)-1H-indol-6-yl]-3-fluoropropane-1-sulfonamide]
3.2	140	55	Cc1cc(Oc2ccccc2F)ncc1-n1ncc(C(=O)c2cc3cc(OCC(F)F)c(NS(=O)(=O)C4CC4)cc3[nH]2)c1N [Example 4-24-027, N-[2-[5-amino-1-[6-(2-fluorophenoxy)-4-methylpyridin-3-yl]pyrazole-4-carbonyl]-5-(2,2-difluoroethoxy)-1H-indol-6-yl]cyclopropanesulfonamide]
1.2	37	14	Cc1cc(Oc2ccccc2F)ncc1-n1ncc(C(=O)c2cc3cc(OCC(F)F)c(NS(C)(=O)=O)cc3[nH]2)c1N [Example 4-24-028, N-[2-[5-amino-1-[6-(2-fluorophenoxy)-4-methylpyridin-3-yl]pyrazole-4-carbonyl]-5-(2,2-difluoroethoxy)-1H-indol-6-yl]methanesulfonamide]
1.6	54	29	Cc1cc(Oc2ccccc2F)ncc1-n1ncc(C(=O)c2cc3cc(OCC(F)F)c(NS(=O)(=O)CCCF)cc3[nH]2)c1N [Example 4-24-029, N-[2-[5-amino-1-[6-(2-fluorophenoxy)-4-methylpyridin-3-yl]pyrazole-4-carbonyl]-5-(2,2-difluoroethoxy)-1H-indol-6-yl]-3-fluoropropane-1-sulfonamide]
1.7	120	23	Cc1cc(Oc2c(F)cccc2F)ncc1-n1ncc(C(=O)c2cc3cc(OCC(F)F)c(NS(=O)(=O)C4CC4)cc3[nH]2)c1N [Example 4-24-030, N-[2-[5-amino-1-[6-(2,6-difluorophenoxy)-4-methylpyridin-3-yl]pyrazole-4-carbonyl]-5-(2,2-difluoroethoxy)-1H-indol-6-yl]cyclopropanesulfonamide]

Reference: patent US10479780B2, “Aminopyrazole derivatives” (Chugai Seiyaku Kabushiki Kaisha, priority 2015, dated 2019)
